The source of these data is patent publication US7723326B2, “Heterocyclic amide derivatives as RXR agonists for the treatment of dyslipidemia, hypercholesterolemia and diabetes” (Janssen Pharmaceutica N.V., priority 2005, dated 2010).

Each structure is given as a SMILES string.

As a reminder, the EC50 is the concentration giving half of the maximal effect. High values mean a need for much substance, low ones an effect from little substance.

Experiment [1] relates to ABCA1 mRNA in THP-1 cells. Briefly: ABCA1 bDNA assay (ABCA1 mRNA induction). The settings on record: Homo sapiens; for Emax at 3 µM: relative to MX-6054, read-out: ABCA1 % max MX-6054; for EC50: ABCA1 mRNA induction, usually 18-24 hrs. It is filed as cell-based. As for the experimental part: THP-1 cells, a human monocytic cell line, were obtained from ATCC and maintained in RPMI (Gibco) supplemented with 10% fetal bovine serum (Gibco), 2mM L-glutamine and 1% antibiotic-antimycotic in 5% CO2 at 37° C. For ABCA1 mRNA induction assays, the cells were pelleted and resuspended in RPMI supplemented with 0.5% charcoal treated serum (Hyclone), 2 mM glutamine and 1% antibiotic-antimycotic. The cells were plated at a density of 40,000 cells/90 μl and incubated as above for at least 4 hours before the initiation of treatments. Compounds were prepared as 10 mM stocks in DMSO. For treatments, the compounds were diluted in medium and 10 μl of 10× stocks were added to the cells at a final concentration 0.1% DMSO. The cells were incubated for the desired amount of time (usually 18-24 hrs) and then lyzed with 50 μl of Quantigene HV bDNA lysis buffer which also contained the ABCA1 bDNA probes (probe sequences shown below): […]

In experiment [2] the target is T1, RXR ligand binding domain (accession number X52773) fused with the DNA binding domain of yeast GAL4 (Homo sapiens, UniProt P19793).
T1 construct: expressed in transfected cells; host or cells: HEK293
T1 sequence (P19793 227-458 limits assumed): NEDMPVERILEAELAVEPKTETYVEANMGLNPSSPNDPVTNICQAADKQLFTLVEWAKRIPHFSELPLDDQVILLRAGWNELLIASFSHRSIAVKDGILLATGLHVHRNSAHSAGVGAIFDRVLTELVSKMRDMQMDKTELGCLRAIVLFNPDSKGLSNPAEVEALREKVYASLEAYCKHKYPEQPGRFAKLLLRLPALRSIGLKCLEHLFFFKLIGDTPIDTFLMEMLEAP
Briefly: RXR co-transfection assay (GAL4-LBD luciferase reporter in HEK293 cells). The settings on record: 16-18 hours. The format is cell-based. As for the experimental part:
The nucleic acid sequence from 676-1464bp (accession number X52773) encoding the ligand binding domains was subcloned into the pM vector (BD Biosciences Clontech, Palo Alto, Calif.) and were fused with the DNA binding domain of yeast GAL4. HEK293 cells were cultured in DMEM/F12 medium supplemented with 10% FBS and 1% 1-glutamine (growth medium). Cells were seeded at a density of 5-10×10^6 cells in 50 ml of growth medium and left overnight, The medium was removed and the cells were washed with 15 ml of OptiMEM serum free medium (Invitrogen Corp). The cells were transfected using OptiMEM serum free medium and DMRIE transfection reagent (Invitrogen Corp). Approximately 10-30 ng of DNA for the different receptors and 5-10 ng of the luciferase reporter (1:1 ratio for RAR and 4:1 ratio for RXR of receptor DNA:reporter DNA) were gently mixed with 51 μl of DMRIE reagent in a total volume of 17 ml of OptiMEM medium. Eighteen hours after transfection, the cells were washed once with growth medium and then incubated for 6 hrs in 30 ml of growth medium. The cells were then trypsinized, and reseeded at a density of 50,000 per well in 96 well plates and left overnight. The medium was replaced with 90 μl of medium containing DMEM/F12 supplemented with 0.5% charcoal-treated FBS (HyClone; Logan, Utah) and 1% glutamine. Compounds or vehicle were added in 10 μl of 10× concentration of compound or vehicle (0.1% dimethyl sulfoxide). The cells were treated for 16-18 hours, lysed and assayed for luciferase activity using the Steady Gio luciferase assay kit (Promega, Madison, Wis.).
(In general: A reporter such as luciferase makes a cellular process visible.)

`Cc1cc2c(cc1-c1cc(/C=C/C(=O)O)ccc1OC(F)(F)F)N(C(C)C)C(=O)C(C)(C)O2` [Compound 4, 3-[3-(4-Isopropyl-2,2,7-trimethyl-3-oxo-3,4-dihydro-2H-benzo[1,4]oxazin-6-yl)-4-trifluoromethoxy-phenyl]-acrylic acid]: in experiment [1], the Emax at 3 µM turned out to be 79% and a half-maximal effect (EC50) was put at 430 nM. Besides, the response in experiment [2] was half-maximal at 98.8 nM (EC50).

With `Cc1cc2c(cc1-c1cc(/C=C/C(=O)O)ccc1OC(F)(F)F)N(C)C(=O)C(C)(C)O2` [Compound 3, 3-[3-(2,2,4,7-Tetramethyl-3-oxo-3,4-dihydro-2H-benzo[1,4]oxazin-6-yl)-4-trifluoromethoxy-phenyl]-acrylic acid], the Emax at 3 µM in experiment [1] worked out at 8.4%. The half-maximal effective concentration (EC50) in experiment [1] and in experiment [2] was above 2000 nM throughout.

For the compound `CCN1C(=O)OC(C(C)C)c2cc(C)c(-c3cc(CCC(=O)O)ccc3OC(F)(F)F)cc21` (stereo not drawn) [Compound 18, 3-[3-(1-Ethyl-4-isopropyl-6-methyl-2-oxo-1,4-dihydro-2H-benzo[d][1,3]oxazin-7-yl)-4-trifluoromethoxy-phenyl]-propionic acid], the Emax at 3 µM in experiment [1] turned out to be 4.5%. In addition, the EC50 in experiment [1] and in experiment [2] was above 2000 nM each time.

As for `CCN1C(=O)C(C)(C)Oc2cc(C)c(-c3cc(CCC(=O)O)ccc3OC(F)(F)F)cc21` [Compound 12, 3-[3-(4-Ethyl-2,2,7-trimethyl-3-oxo-3,4-dihydro-2H-benzo[1,4]oxazin-6-yl)-4-trifluoromethoxy-phenyl]-propionic acid], the results for the EC50 in experiment [1] and in experiment [2] were above 2000 nM and 709 nM, respectively.

Consider `CCN1C(=O)C(C)(C)Oc2cc(C)c(-c3cc([C@@H]4C[C@H]4C(=O)O)ccc3OC(F)(F)F)cc21` (racemic) [Compound 22, 2-[3-(4-Ethyl-2,2,7-trimethyl-3-oxo-3,4-dihydro-2H-benzo[1,4]oxazin-6-yl)-4-trifluoromethoxy-phenyl]-cyclopropanecarboxylic acid], for which the Emax at 3 µM in experiment [1] was determined as 28.6%. The values for the EC50 in experiment [1] and in experiment [2] were above 2000 nM and 385 nM, respectively.

For `Cc1cc2c(cc1-c1cc(/C=C/C(=O)O)ccc1OCC(F)(F)F)N(C)C(=O)C(C)(C)O2` [Compound 5, 3-[3-(2,2,4,7-Tetramethyl-3-oxo-3,4-dihydro-2H-benzo[1,4]oxazin-6-yl)-4-(2,2,2-trifluoro-ethoxy)-phenyl]-acrylic acid], the EC50 in experiment [1] and in experiment [2] was above 2000 nM throughout.

As for `Cc1cc2c(cc1-c1cc(CCC(=O)O)ccc1OC(F)(F)F)N(C(C)C)C(=O)C(C)(C)O2` [Compound 13, 3-[3-(4-Isopropyl-2,2,7-trimethyl-3-oxo-3,4-dihydro-2H-benzo[1,4]oxazin-6-yl)-4-trifluoromethoxy-phenyl]-propionic acid], the EC50 in experiment [1] is above 2000 nM; in experiment [2], 347 nM.
